Experimental findings from patent publication EP0468504B1, “A novel antibiotic, balhimycin, a process for its production and its use as pharmaceutical” (HOECHST AKTIENGESELLSCHAFT, priority 1990, dated 1992) are described below.

Test systems include S. aureus 209 P; S. aureus (MethR); S. aureus 3066 (MethR); S. aureus E 690 (MethR); S. faec. D 21777; S. faec. D Endococcen; S. faecium D-59; S. faecium D-65; Staph. epidermidis 178; S. epi. 825; Staph. haemolyticus 712; E. coli 9632; P. vulgaris; Ps. aeruginosa.
Common to all, as to experiment: MIC, antibacterial activity
Holding throughout (type): cell-based

The subject of test [1] is Streptococcus faecalis ATCC 29212.
The subject of test [2] is S. epi. 823 (Teicoplanin R).
The test system of test [3] is S. haemo. 809 (Teicoplanin R).

SMILES strings stand for the structures. Where a name gives a salt, the structure may show the parent alone.

As for `CNC(CC(C)C)C(=O)NC1C(=O)NC(CC(N)=O)C(=O)NC2C(=O)NC3C(=O)NC(C(=O)NC(C(=O)O)c4cc(O)cc(O)c4-c4cc3ccc4O)C(OC3C[C@](C)(N)C(=O)C(C)O3)c3ccc(c(Cl)c3)Oc3cc2cc(c3OC2O[C@H](CO)C(O)[C@H](O)C2O)Oc2ccc(cc2Cl)C1O` (some centres unmarked) [Balhimycin trifluoroacetate, Balhimycin], the MIC worked out at 0.39 µg/mL against S. aureus 209 P; 0.39 µg/mL in the test with S. aureus (MethR); 0.78 µg/mL with S. aureus 3066 (MethR); 0.39 µg/mL with S. aureus E 690 (MethR); 1.56 µg/mL in test [1]; 0.78 µg/mL with S. faec. D 21777. The MIC against S. faec. D Endococcen was found to be 0.78 µg/mL; in the test with S. faecium D-59, 1.56 µg/mL; with S. faecium D-65, 0.78 µg/mL; against Staph. epidermidis 178 it was 1.56 µg/mL; in the test on S. epi. 825, 3.12 µg/mL; in [2], 12.5 µg/mL. The minimum inhibitory concentration (MIC) is 1.56 µg/mL in the test on Staph. haemolyticus 712; 6.25 µg/mL in [3]; >100 µg/mL with E. coli 9632; >100 µg/mL against P. vulgaris; >100 µg/mL in the test with Ps. aeruginosa.

A word on the MIC: it is the smallest concentration in the dilution series that meets the test's criterion for growth inhibition.
